Assay results published in patent US20120015957A1, “PIPERAZINYL DERIVATIVES USEFUL AS MODULATORS OF THE NEUROPEPTIDE Y2 RECEPTOR” (priority 2007, published 2012).

biological target: T1, NPY Y2 receptor (Homo sapiens, UniProt P49146); assay: Neuropeptide Y2 pKB assay (FLIPR, KAN-Ts cells stably expressing chimeric G proteins); assay type: cell-based; details: apparent pKB, FLIPR calcium, KAN-Ts cells with chimeric G proteins; modified Cheng-Prusoff correction
T1 construct: endogenous in cells; host or cells: KAN-Ts cells (membrane preparation)
T1 sequence (P49146 1-381): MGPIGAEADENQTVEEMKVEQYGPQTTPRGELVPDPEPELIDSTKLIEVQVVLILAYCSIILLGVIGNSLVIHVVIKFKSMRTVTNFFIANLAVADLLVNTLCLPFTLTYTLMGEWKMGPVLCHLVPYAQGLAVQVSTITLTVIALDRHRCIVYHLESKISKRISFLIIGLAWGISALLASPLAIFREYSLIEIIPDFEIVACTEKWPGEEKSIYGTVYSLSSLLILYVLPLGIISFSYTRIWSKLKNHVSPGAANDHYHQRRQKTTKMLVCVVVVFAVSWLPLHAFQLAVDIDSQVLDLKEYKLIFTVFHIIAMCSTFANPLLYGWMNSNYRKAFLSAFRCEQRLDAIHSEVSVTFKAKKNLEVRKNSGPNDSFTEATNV
Protocol: The assay was performed using the fluorimetric imaging plate reader (FLIPR) format as described in Dautzenberg, F. M., Biochemical Pharmacology 2005, 69, 1493.
KAN-Ts cells stably expressing chimeric G proteins were seeded at a density of 100,000 cells into poly-d-lysine coated 384-well blackwall, clear-bottom microtiter plates (Corning, N.Y.). One day later, the medium was removed and 50 μl loading medium DMEM high glucose, without serum, supplemented with 10 mM HEPES-acid, 0.1% BSA, 5 mM probenecid and 2 μM Fluo-3AM was added. Cells were loaded for 1 h at 37° C., washed twice with 50 μl assay buffer (5 mM HEPES-acid, 140 mM NaCl, 1 mM MgCl2, 5 mM KCl, 10 mM glucose) and then 30 μl assay buffer was added. Cells were further pre-incubated at room temperature before adding agonists or agonists plus antagonists in 20 μl assay buffer and then measured on a T-channel fluorometric imaging plate reader (FLIPR, Molecular Devices, Sunnyvale, Calif.). Antagonistic potency values were converted to apparent pKB values using a modified Cheng-Prusoff correction. Apparent pKB was calculated as pKB=−log IC50/1+[conc agonist/EC50].

Kb [nM] | SMILES
200 | CCN(CC)C(=O)C(c1ccccc1)N1CCN(c2ccc(-c3noc(C)n3)cc2F)CC1 (centres unmarked) [Compound 67, N,N-Diethyl-2-{4-[2-fluoro-4-(5-methyl-[1,2,4]oxadiazol-3-yl)-phenyl]-piperazin-1-yl}-2-phenyl-acetamide]

biological target: T1, NPY Y2 receptor; assay: Neuropeptide Y2 radioligand binding assay ([125I]PYY, KAN-Ts cell membranes); details: not given
Protocol: KAN-Ts endogenously expressing Y2 receptors were used for the radioligand binding assay. Cells were grown to confluence on 150 cm^2 tissue culture plates, washed with phosphate-buffered saline (PBS), and scraped into 50 mL tubes. After centrifugation, the supernatant was aspirated, and the pellets frozen and stored at −80° C. Thawed pellets were homogenized with a polytron tissue grinder for 15 sec in 20 mM Tris-HCl, 5 mM EDTA. The homogenate was centrifuged at 800×g for 5 min and the collected supernatant was recentrifuged at 25000×g for 25 min. The resulting pellet was resuspended in binding buffer (20 mM HEPES, 120 mM NaCl, 0.22 mM KH2PO4, 1.3 mM CaCl2, 0.8 mM MgSO4). Membranes were incubated with [^125I]PYY (80 pM) in the presence or absence of test compound for 1 h at rt. The reaction was stopped by filtration through GF/C filter plates pre-soaked in 0.3% polyethylenimine and subsequently washed with Tris 50 mM, 5 mM EDTA buffer. Plates were dried for 1 h in a 55° C. oven, scintillation fluid was added and the radioactivity was counted in a Packard TopCount. Specific binding to the NPY receptor subtypes was determined by radioactivity that was bound in the presence of […] NPY. Each binding experiment was repeated three to eight times, each in duplicate. IC50 values (i.e. concentration of unlabelled peptide or antagonist required to compete for 50% of specific binding to the radioligand) were determined using the GraphPad Prism software (GraphPad Software Inc., San Diego Calif.) with a fit to a sigmoidal dose response curve. Apparent K values were as K=IC50/(1+C/KD), where C is concentration of the radioligand.

SMILES | IC50 [µM]
CCNC(=O)C(c1ccccc1)N1CCN(c2ccc(-c3nc(C(C)C)no3)cc2C#N)CC1 (centres unmarked) [Compound 270] | 0.062

same assay, conditions: membranes of KAN-Ts cells endogenously expressing Y2 receptors; [125I]PYY 80 pM; 1 h at rt; read-out: IC50 (μM), NPY Y2 binding

IC50 [µM] | SMILES
0.18 | CCN(CC)C(=O)C(c1ccccc1)N1CCN(c2ccc(-c3noc(C)n3)cc2F)CC1 (centres unmarked) [Compound 67, N,N-Diethyl-2-{4-[2-fluoro-4-(5-methyl-[1,2,4]oxadiazol-3-yl)-phenyl]-piperazin-1-yl}-2-phenyl-acetamide]
0.24 | COC(=O)C(c1ccccc1)N1CCN(c2ccc(-c3nc(C(C)C)no3)cc2F)CC1 (centres unmarked) [Compound 213, {4-[2-Fluoro-4-(3-isopropyl-[1,2,4]oxadiazol-5-yl)-phenyl]-piperazin-1-yl}-phenyl-acetic acid methyl ester]
1.1 | CCN(CC)C(=O)C(c1ccccc1)N1CCN(c2ccc(-c3nc(C)n(C)n3)cc2F)CC1 (centres unmarked) [Compound 215, 2-{4-[4-(1,5-Dimethyl-1H-[1,2,4]triazol-3-yl)-2-fluoro-phenyl]-piperazin-1-yl}-N,N-diethyl-2-phenyl-acetamide]
0.66 | Cc1noc(-c2ccc(N3CCN(C(C(=O)OC(C)(C)C)c4ccccc4)CC3)c(F)c2)n1 (centres unmarked) [Compound 219, {4-[2-Fluoro-4-(3-methyl-[1,2,4]oxadiazol-5-yl)-phenyl]-piperazin-1-yl}-phenyl-acetic acid tert-butyl ester]
1 | CCN(CC)C(=O)C(c1ccccc1)N1CCN(c2ccc(-c3nc(C(C)C)nn3C)cc2F)CC1 (centres unmarked) [Compound 220, N,N-Diethyl-2-{4-[2-fluoro-4-(5-isopropyl-2-methyl-2H-[1,2,4]triazol-3-yl)-phenyl]-piperazin-1-yl}-2-phenyl-acetamide]
2.1 | CCN(CC)C(=O)C(c1ccccc1)N1CCN(c2ccc(-c3nc(C(C)C)no3)cc2C(N)=O)CC1 (centres unmarked) [Compound 221, 2-[4-(Diethylcarbamoyl-phenyl-methyl)-piperazin-1-yl]-5-(3-isopropyl-[1,2,4]oxadiazol-5-yl)-benzamide]
1 | CCOC(=O)C(C)(c1ccccc1)N1CCN(c2ccc(-c3nc(C)no3)cc2F)CC1 (centres unmarked) [Compound 226, 2-{4-[2-Fluoro-4-(3-methyl-[1,2,4]oxadiazol-5-yl)-phenyl]-piperazin-1-yl}-2-phenyl-propionic acid ethyl ester]
0.035 | CCN(CC)C(=O)C(c1ccc(OC)cc1)N1CCN(c2ccc(-c3nc(C)no3)cc2C#N)CC1 (centres unmarked) [Compound 250, 2-{4-[2-Cyano-4-(3-methyl-[1,2,4]oxadiazol-5-yl)-phenyl]-piperazin-1-yl}-N,N-diethyl-2-(4-methoxy-phenyl)-acetamide]
0.49 | CCN(CC)C(=O)C(c1ccccc1OC)N1CCN(c2ccc(-c3nc(C)no3)cc2C#N)CC1 (centres unmarked) [Compound 251, 2-{4-[2-Cyano-4-(3-methyl-[1,2,4]oxadiazol-5-yl)-phenyl]-piperazin-1-yl}-N,N-diethyl-2-(2-methoxy-phenyl)-acetamide]
0.096 | CCN(CC)C(=O)C(c1cccs1)N1CCN(c2ccc(-c3nc(C)no3)cc2C#N)CC1 (centres unmarked) [Compound 252, 2-{4-[2-Cyano-4-(3-methyl-[1,2,4]oxadiazol-5-yl)-phenyl]-piperazin-1-yl}-N,N-diethyl-2-thiophen-2-yl-acetamide]
8.3 | CCN(CC)C(=O)C(c1ccccc1)N1CCN(c2ccc(-c3ccccc3C#N)cc2F)CC1 (centres unmarked) [Compound 253, 2-[4-(2′-Cyano-3-fluoro-biphenyl-4-yl)-piperazin-1-yl]-N,N-diethyl-2-phenyl-acetamide]
1 | CCN(CC)C(=O)C(c1ccccc1)N1CCN(c2ccc(-c3ccccc3C)cc2F)CC1 (centres unmarked) [Compound 254, N,N-Diethyl-2-[4-(3-fluoro-2′-methyl-biphenyl-4-yl)-piperazin-1-yl]-2-phenyl-acetamide]
0.03 | CCN(CC)C(=O)C(c1ccccc1)N1CCN(c2ccc(-c3ccccc3OC)cc2C#N)CC1 (centres unmarked) [Compound 255, 2-[4-(3-Cyano-2′-methoxy-biphenyl-4-yl)-piperazin-1-yl]-N,N-diethyl-2-phenyl-acetamide]
0.17 | CCN(CC)C(=O)C(c1ccccc1)N1CCN(c2ccc(-c3nc(C(C)C)no3)cc2C=O)CC1 (centres unmarked) [Compound 256, N,N-Diethyl-2-{4-[2-formyl-4-(3-isopropyl-[1,2,4]oxadiazol-5-yl)-phenyl]-piperazin-1-yl}-2-phenyl-acetamide]
0.34 | CCN(CC)C(=O)C(c1ccccc1)N1CCN(c2ccc(-c3nc(C(C)C)no3)cc2CO)CC1 (centres unmarked) [Compound 257, N,N-Diethyl-2-{4-[2-hydroxymethyl-4-(3-isopropyl-[1,2,4]oxadiazol-5-yl)-phenyl]-piperazin-1-yl}-2-phenyl-acetamide]
1.8 | CCN(CC)C(=O)C(c1ccccc1)N1CCN(c2ccc(-c3nc(C(C)C)no3)cc2CNC)CC1 (centres unmarked) [Compound 258, N,N-Diethyl-2-{4-[4-(3-isopropyl-[1,2,4]oxadiazol-5-yl)-2-methylaminomethyl-phenyl]-piperazin-1-yl}-2-phenyl-acetamide]
2.4 | CCN(CC)C(=O)C(c1ccccc1)N1CCN(c2ccc(-c3nc(C(C)C)no3)cc2CN(C)C)CC1 (centres unmarked) [Compound 259, 2-{4-[2-Dimethylaminomethyl-4-(3-isopropyl-[1,2,4]oxadiazol-5-yl)-phenyl]-piperazin-1-yl}-N,N-diethyl-2-phenyl-acetamide]
0.98 | CCN(CC)C(=O)C(c1ccccc1)N1CCN(c2ccc(-c3nc(C(C)C)no3)cc2COC)CC1 (centres unmarked) [Compound 260, N,N-Diethyl-2-{4-[4-(3-isopropyl-[1,2,4]oxadiazol-5-yl)-2-methoxymethyl-phenyl]-piperazin-1-yl}-2-phenyl-acetamide]
0.41 | CCNC(=O)C(c1ccccc1)N1CCN(c2ccc(-c3nc(C)no3)cc2C#N)CC1 (centres unmarked) [Compound 261, 2-{4-[2-Cyano-4-(3-methyl-[1,2,4]oxadiazol-5-yl)-phenyl]-piperazin-1-yl}-N-ethyl-2-phenyl-acetamide]
0.098 | CCN(CC)C(=O)C(c1ccc(F)cc1)N1CCN(c2ccc(-c3nc(C)no3)cc2C#N)CC1 (centres unmarked) [Compound 262, 2-{4-[2-Cyano-4-(3-methyl-[1,2,4]oxadiazol-5-yl)-phenyl]-piperazin-1-yl}-N,N-diethyl-2-(4-fluoro-phenyl)-acetamide]

SMILES | IC50 [µM]
CCN(CC)C(=O)C(c1ccccc1)N1CCN(c2ccc(-c3nnc(C(C)C)[nH]3)cc2F)CC1 (centres unmarked) [Compound 212, N,N-Diethyl-2-{4-[2-fluoro-4-(5-isopropyl-2H-[1,2,4]triazol-3-yl)-phenyl]-piperazin-1-yl}-2-phenyl-acetamide] | 0.83
CCN(CC)C(=O)C(c1ccccc1)N1CCN(c2ccc(-c3ccccc3OC)cc2F)CC1 (centres unmarked) [Compound 214, N,N-Diethyl-2-[4-(3-fluoro-2′-methoxy-biphenyl-4-yl)-piperazin-1-yl]-2-phenyl-acetamide] | 0.078
CCN(CC)C(=O)C(c1ccccc1)N1CCN(c2ccc(-c3nc(C(C)C)n(C)n3)cc2F)CC1 (centres unmarked) [Compound 216, N,N-Diethyl-2-{4-[2-fluoro-4-(5-isopropyl-1-methyl-1H-[1,2,4]triazol-3-yl)-phenyl]-piperazin-1-yl}-2-phenyl-acetamide] | 1.95
CCN(CC)C(=O)C(c1ccccc1)N1CCN(c2ccc(-c3nc(C)ns3)cc2F)CC1 (centres unmarked) [Compound 271, N,N-Diethyl-2-{4-[2-fluoro-4-(3-methyl-[1,2,4]thiadiazol-5-yl)-phenyl]-piperazin-1-yl}-2-phenyl-acetamide] | 0.11
